# Measurements taken from patent US20240253033A1, “MICROFLUIDIC DETECTION SYSTEM WITH ADJUSTABLE FLOW CONTROL” (priority 2022, published 2024).
# Columns and labels:
# [1] = test system: MRSA; experiment: Conventional broth microdilution (BMD) MIC; format: cell-based, Staphylococcus aureus
# Experimental: (§1) For clinical MIC, bacteria were streaked on LB agar overnight and resuspended in a water aliquot. The aliquot was measured, and the bacteria concentration was adjusted to of 10^6 CFU ml^−1 in LB media. A 96 well plate with an antibiotic gradient from 128 μg/ml to 0.125 μg/ml in a 2-fold concentration dilution step was prepared with a positive control with no antibiotics. Next, the bacteria were introduced to each well of the 96 well plate for a final bacteria concentration of 5×10^5 CFU ml^−1. The well plates were cultured overnight the minimum inhibitory concentration was determined as the antibiotic concentration that didn't show any signs of bacterial growth.
# [2] = test system: MRSA; experiment: Phenotypic QolorAST rapid AST (resazurin reduction); format: cell-based, Staphylococcus aureus; details: 10^5 cfu/mL MRSA, antibiotic concentrations, 0-60 min
# Experimental: (§2) Resistant E. coli, Oxacillin-resistant S. aureus, and Cipro. Resistant PA respectively was used. The aliquots were incubated at 37° C. different periods starting from 0 minutes incubation till 60 minutes with a time step of 5 minutes.
# (§3) Resistant PA respectively was used. The aliquots were incubated at 37° C. different periods starting from 0 minutes incubation until 60 minutes with a time step of 5 minutes.
# (§4) MRSA and PA respectively.
# [3] = test system: MRSA; experiment: QolorAST minimum inhibitory concentration (MIC) test; format: cell-based, Staphylococcus aureus
# Experimental: (§5) Ampicillin-resistant E. coli strain mm294 was cultured overnight at 37° C. in Luria broth (LB) media supplemented with 100 μg/mL Ampicillin. […] Next, the bacterial concentration was determined by optical density technique using a Spectronic 21D spectrophotometer. Subsequently, aliquots of different concentrations were prepared for the antibiotic susceptibility testing experiments in LB media. Biotyper spectra (MALDI Bruker).
# (§6) 5×10^5 CFU ml^−1 Oxacillin-resistant S. aureus aliquots were prepared using resazurin/oxacillin solution using different concentrations of oxacillin antibiotic (16 μg/mL, 32 μg/mL, and 64 μg/mL). 5×10^5 CFU ml^−1 Cipro.
# (§7) A minimum inhibitory concentration (MIC) was performed to study the QolorAST broad applicability in detecting bacterial resistance profiles and ensuring timely and efficient antimicrobial theraby. […] The antibiotics cover major bacterial inhibition mechanisms as inhibition of protein synthesis, cell wall synthesis, and/or DNA synthesis.
# (§8) QolorAST exploited two methodologies: Manual MIC (MA-MIC) and support vector machine MIC (SVM-MIC). […] The SVM-MIC was carried out with a rbf kernel that was optimized and trained to predict the color change of the preclinical images using our library of bacteria images collected under different conditions including images where color is changed, color transitioning, and no color change. The SVM successfully classified the condition's bacteria-antibiotic in the concentration range studied.
# [4] = test system: serum proteins; details: human serum; cited from earlier work
# [5] = test system: S. agalactiae; experiment: Conventional broth microdilution (BMD) MIC; format: cell-based, Streptococcus agalactiae
# Experimental: as §1
# [6] = test system: S. agalactiae; experiment: QolorAST minimum inhibitory concentration (MIC) test; format: cell-based, Streptococcus agalactiae
# Experimental: (§9) Acinetobacter baumannii, Enterococcus faecalis, Enterococcus faecium, Streptococcus agalactiae, Enterobacter cloacae, Klebsiella pneumoniae, Streptococcus pneumoniae, E coli MG1655, and E coli Trimethoprim resistant were streaked on LB miller agar overnight at 37° C. and resuspended in water aliquot. Next, the bacterial concentration was determined using optical density technique. Subsequently, aliquots of different concentrations were prepared for the antibiotic susceptibility testing experiments in CamHB growth media.
# as §6, §7, §8
# [7] = test system: E coli mm 294; experiment: QolorAST MIC test for E coli strains spiked in urine; format: cell-based, Escherichia coli; details: E coli mm 294 spiked in urine
# Experimental: To obtain spiked human samples, first human urine was centrifuged at 5000 rcf for 5 minutes to remove large particles. It was subsequently spiked with 5×10^5 CFU ml^−1 and mixed with a solution of Resazurin to a final concentration of 0.02%. No antibiotics were added for the control aliquots, 32 μg/mL Ampicillin was added for resistant aliquots and 16 μg/mL Kanamycin was added for susceptible aliquots. The aliquots were incubated at 37° C. different periods starting from 0 minutes incubation till 60 minutes with a time step of 5 minutes.
# According to the Infectious Diseases Society of America (IDSA), 105 CFU ml^−1 and 102 CFU ml^−1 were spiked in-vivo in urine, serum, and nasal swab of donors to simulate urinary tract infection, wound infection, and pneumonia by MRSA, respectively. Human urine was spiked with different concentrations of E. coli (FIG. 32D). As a control the healthy human biofluids were screened as received.
# [8] = test system: S. pneumonia; experiment: Conventional broth microdilution (BMD) MIC; format: cell-based, Streptococcus pneumoniae
# Experimental: as §1
# [9] = test system: E coli; experiment: Phenotypic QolorAST rapid AST (resazurin reduction); format: cell-based, Escherichia coli; details: 10^5 cfu/mL E coli, antibiotic concentrations, 0-60 min
# Experimental: as §2, §3, §4
# [10] = test system: A. baumannii; experiment: QolorAST minimum inhibitory concentration (MIC) test; format: cell-based, Acinetobacter baumannii
# Experimental: as §9, §6, §7, §8
# [11] = test system: S. pneumonia; experiment: as above; format: cell-based, Streptococcus pneumoniae
# Experimental: as §9, §6, §7, §8
# [12] = test system: E. cloacae; experiment: as above; format: cell-based, Enterobacter cloacae
# Experimental: as §9, §6, §7, §8
# [13] = test system: K. pneumonia; experiment: as above; format: cell-based, Klebsiella pneumoniae
# Experimental: as §9, §6, §7, §8
# [14] = test system: E. cloacae; experiment: Conventional broth microdilution (BMD) MIC; format: cell-based, Enterobacter cloacae
# Experimental: as §1
# [15] = test system: A. baumannii; experiment: Conventional broth microdilution (BMD) MIC; format: cell-based, Acinetobacter baumannii
# Experimental: as §1
# [16] = test system: K. pneumonia; experiment: Conventional broth microdilution (BMD) MIC; format: cell-based, Klebsiella pneumoniae
# Experimental: as §1
# [17] = test system: PA; experiment: QolorAST minimum inhibitory concentration (MIC) test; format: cell-based, Pseudomonas aeruginosa
# Experimental: as §5, §6, §7, §8
# [18] = test system: Pseudomonas aeruginosa; experiment: Phenotypic QolorAST rapid AST (resazurin reduction); format: cell-based; details: 10^5 cfu/mL PA, antibiotic concentrations, 0-60 min
# Experimental: as §2, §3, §4
# [19] = test system: PA; experiment: Conventional broth microdilution (BMD) MIC; format: cell-based, Pseudomonas aeruginosa
# Experimental: as §1
molecule,measurement,setting,value
Cc1onc(-c2ccccc2)c1C(=O)N[C@@H]1C(=O)N2[C@@H]1SC(C)(C)[C@@H]2C(=O)O [Oxacillin],Broth Microdilution MIC (MIC),[1],64
same,QolorAST colour readout over incubation,[2],consistent color change from blue to green
same,MA-MIC/SVM-MIC/MIC Category,[3],R/R/R
same,QolorAST MIC Manual (MA-MIC),[3],64 µg/mL
same,QolorAST MIC SVM (SVM-MIC),[3],64 µg/mL
same,resistance or susceptibility,[3],resistance
same,drug bounded to serum proteins,[4],93%
same,Broth Microdilution MIC (MIC),[5],0.125
same,MA-MIC/SVM-MIC/MIC Category,[6],S/S/S*
same,QolorAST MIC Manual (MA-MIC),[6],0.125 µg/mL
same,QolorAST MIC SVM (SVM-MIC),[6],0.125 µg/mL
same,resistance or susceptibility,[6],susceptible
NC[C@H]1O[C@H](O[C@H]2[C@H](O)[C@@H](O[C@H]3O[C@H](CO)[C@@H](O)[C@H](N)[C@H]3O)[C@H](N)C[C@@H]2N)[C@H](O)[C@@H](O)[C@@H]1O [Kanamycin],MIC,[7],8 µg/mL
CC1(C)S[C@@H]2[C@H](NC(=O)[C@H](N)c3ccccc3)C(=O)N2[C@H]1C(=O)O [Ampicillin],Broth Microdilution MIC (MIC),[8],>128
same,QolorAST colour readout over incubation,[9],consistent color change from blue to green
same,MA-MIC/SVM-MIC/MIC Category,[10],R/R/R*
same,QolorAST MIC Manual (MA-MIC),[10],> 128 µg/mL
same,QolorAST MIC SVM (SVM-MIC),[10],> 128 µg/mL
same,MIC,[10]; both manually and through SVM,> 128 µg/mL
same,MA-MIC/SVM-MIC/MIC Category,[11],R/R/R*
same,QolorAST MIC Manual (MA-MIC),[11],> 128 µg/mL
same,QolorAST MIC SVM (SVM-MIC),[11],> 128 µg/mL
same,MA-MIC/SVM-MIC/MIC Category,[12],R/R/R
same,QolorAST MIC Manual (MA-MIC),[12],> 128 µg/mL
same,QolorAST MIC SVM (SVM-MIC),[12],> 128 µg/mL
same,MA-MIC/SVM-MIC/MIC Category,[13],R/R/R
same,QolorAST MIC Manual (MA-MIC),[13],> 128 µg/mL
same,QolorAST MIC SVM (SVM-MIC),[13],128 µg/mL
same,relative susceptibility from MIC values,[13],enhanced susceptibility to ampicillin over colistin
same,Broth Microdilution MIC (MIC),[14],>128
same,Broth Microdilution MIC (MIC),[15],>128
same,Broth Microdilution MIC (MIC),[16],>128
Gentamicin,MA-MIC/SVM-MIC/MIC Category,[17],S/S/S*
same,MIC outcomes,[17],0.5 µg/mL
same,QolorAST MIC Manual (MA-MIC),[17],0.5 µg/mL
same,QolorAST MIC SVM (SVM-MIC),[17],0.5 µg/mL
same,classification by clinical breakpoints,[17],susceptible
same,QolorAST colour readout over incubation,[18],consistent blue color
same,Broth Microdilution MIC (MIC),[19],0.5
